The data set can be described thus: Stability experiment of final compound: solid in sealed vial kept in oven, purity checked by UPLC. It is filed as physicochemical. The settings on record: for Stability Result Solid at 20° C./7day (purity) / Stability Result Solid at 100° C./1 day (purity): 10 mg solid in 4 mL vial with sealed cap; for Stability Result Solid at 20° C./7day (purity): 7 days; for Stability Result Solid at 20° C./7day (purity) / Stability Result Solid at 100° C./1 day (purity) / Initial Purity: purity by UPLC; for Stability Result Solid at 100° C./1 day (purity): oven 100° C.; for Initial Purity: solid before storage; for Stability of HCl salt compared with freebase form: conclusion in words from Table 2. An excerpt:
Stability Experiment of Final Compound of Formula (I)
Freebase of Example 4: 6-[5-cyano-6-fluoro-8-(methylamino)-4-[(3aS,6aS)-5-methyl-2,3,3a,4,6,6a-hexahydropyrrolo[2,3-c]pyrrol-1-yl]-9H-pyrido[2,3-b]indol-3-yl]-1-methyl-4-oxo-1,8-naphthyridine-3-carboxylic acid; initial purity: 99.16%
HCl salt compound (Example 4): 6-[5-cyano-6-fluoro-8-(methylamino)-4-[(3aS,6aS)-5-methyl-2,3,3a,4,6,6a-hexahydropyrrolo[2,3-c]pyrrol-1-yl]-9H-pyrido[2,3-b]indol-3-yl]-1-methyl-4-oxo-1,8-naphthyridine-3-carboxylic acid; hydrochloride; initial purity: 98.50%
Freebase of Example 8: 6-[5,6-difluoro-8-(methylamino)-4-[(3aS,6aS)-5-methyl-2,3,3a,4,6,6a-hexahydropyrrolo[2,3-c]pyrrol-1-yl]-9H-pyrido[2,3-b]indol-3-yl]-1-methyl-4-oxo-1,8-naphthyridine-3-carboxylic acid; initial purity: 97.96%
HCl salt compound (Example 8): 6-[5,6-difluoro-8-(methylamino)-4-[(3aS,6aS)-5-methyl-2,3,3a,4,6,6a-hexahydropyrrolo[2,3-c]pyrrol-1-yl]-9H-pyrido[2,3-b]indol-3-yl]-1-methyl-4-oxo-1,8-naphthyridine-3-carboxylic acid; hydrochloride; initial purity: 97.80%
Condition: 10 mg of compound in 4 mL vial with sealed cap. Keep in oven at certain temperature for certain days. Then, the purity of solid was checked by UPLC.

Structures are written as SMILES. Structures can show the parent of a compound that is named as a salt.

As to `CNc1cc(F)c(F)c2c1[nH]c1ncc(-c3cnc4c(c3)c(=O)c(C(=O)O)cn4C)c(N3CC[C@H]4CN(C)C[C@H]43)c12` [Freebase of Example 8, 6-[5,6-difluoro-8-(methylamino)-4-[(3aS,6aS)-5-methyl-2,3,3a,4,6,6a-hexahydropyrrolo[2,3-c]pyrrol-1-yl]-9H-pyrido[2,3-b]indol-3-yl]-1-methyl-4-oxo-1,8-naphthyridine-3-carboxylic acid], the “Stability Result Solid at 20° C./7day (purity)” value is 96.72%, the “Stability Result Solid at 100° C./1 day (purity)” value is on record as 91.08% and the “Initial Purity” value was 97.96%.
Turning to `CNc1cc(F)c(C#N)c2c1[nH]c1ncc(-c3cnc4c(c3)c(=O)c(C(=O)O)cn4C)c(N3CC[C@H]4CN(C)C[C@H]43)c12` [HCl salt compound (Example 4), 6-[5-Cyano-6-fluoro-8-(methylamino)-4-[(3aS,6aS)-5-methyl-2,3,3a,4,6,6a-hexahydropyrrolo[2,3-c]pyrrol-1-yl]-9H-pyrido[2,3-b]indol-3-yl]-1-methyl-4-oxo-1,8-naphthyridine-3-carboxylic acid; dihydrochloride], the “Stability of HCl salt compared with freebase form” value was “much more stable than its freebase form” and the “Initial Purity” value is listed as 98.50%. Besides, where the note is “dihydrochloride”, the “Stability Result Solid at 20° C./7day (purity)” value worked out at 98.67% and the “Stability Result Solid at 100° C./1 day (purity)” value came out at 98.48%.
The like results for `CNc1cc(F)c(F)c2c1[nH]c1ncc(-c3cnc4c(c3)c(=O)c(C(=O)O)cn4C)c(N3CC[C@H]4CN(C)C[C@H]43)c12` [HCl salt compound (Example 8), 6-[5,6-Difluoro-8-(methylamino)-4-[(3aS,6aS)-5-methyl-2,3,3a,4,6,6a-hexahydropyrrolo[2,3-c]pyrrol-1-yl]-9H-pyrido[2,3-b]indol-3-yl]-1-methyl-4-oxo-1,8-naphthyridine-3-carboxylic acid; dihydrochloride] were, in that order, “much more stable than its freebase form”, 97.80%, 97.78% and 97.77%.
With `CNc1cc(F)c(C#N)c2c1[nH]c1ncc(-c3cnc4c(c3)c(=O)c(C(=O)O)cn4C)c(N3CC[C@H]4CN(C)C[C@H]43)c12` [Freebase of Example 4, 6-[5-cyano-6-fluoro-8-(methylamino)-4-[(3aS,6aS)-5-methyl-2,3,3a,4,6,6a-hexahydropyrrolo[2,3-c]pyrrol-1-yl]-9H-pyrido[2,3-b]indol-3-yl]-1-methyl-4-oxo-1,8-naphthyridine-3-carboxylic acid], the “Stability Result Solid at 20° C./7day (purity)” value was determined as 95.73%, the “Stability Result Solid at 100° C./1 day (purity)” value is recorded as 93.35% and the “Initial Purity” value is on record as 99.16%.

The values are drawn from patent US20230242553A1, “PROCESS FOR THE PREPARATION OF 1-METHYL-6-[6-R2-5-METHYL-8-(METHYLAMINO)-4-[ (3AS,6AS)-5-METHYL-2,3,3A,4,6,6A-HEXAHYDROPYRROLO[2,3-C]PYRROL-1-YL]-9H-PYRIDO[2,3-B]INDOL-3-YL]-4-OXO-1,8-NAPHTHYRIDINE-3-CARBOXYLIC ACID HYDROCHLORIDE” (Hoffmann-La Roche Inc., priority 2020, published 2023).
